In the METLIN SMRT retention time set (Domingo-Almenara et al. 2019) one finds RP-LC retention time data, which are given here for 59 molecules.

This data set in a line: gradient 5% acetonitrile 3 min, to 50% in 2 min, to 85% in 15 min, held 3 min, 100 µL/min. The conditions noted are these: column: Zorbax Extend-C18 2.1 x 50 mm; eluents: water / acetonitrile, 0.1% formic acid. In short, it runs like this:
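Retention times come from adduct peaks that were picked computationally and then checked by hand. The standards, pure and pooled in mixtures of ~100 molecules, were run on a Zorbax Extend-C18 column (2.1 × 50 mm, 1.8 μm) at 100 μL/min with water and acetonitrile, each with 0.1% formic acid. Detection was by quadrupole time-of-flight mass spectrometry in positive and negative ionization mode, with a dead volume of 40 μL and a dwell volume of 900 μL.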
Regarding `CC1CCN(c2ccc(-c3noc(CN4CCN(c5ccccc5F)CC4)n3)cn2)CC1`, the RP-LC retention time was found to be 1090 s.

With `CCN1c2ccc(F)cc2C(=O)NC12CCN(C(=O)c1cccc(OC)c1)CC2`, the RP-LC retention time turned out to be 786 s.

Molecule `Cc1cc(Cl)ccc1OCc1nc(-c2ccc(NS(C)(=O)=O)cc2)no1` registered an RP-LC retention time of 1060 s.

For the molecule `O=S(=O)(c1cccc(Cl)c1)N1CCc2nc(-c3ccc(F)cc3)ncc2C1`, the RP-LC retention time turned out to be 1180 s.

As to `CS(=O)(=O)Nc1ccc(C2(C(=O)NCc3ccc(F)cc3Cl)CCC2)cc1`, the RP-LC retention time was 847 s.

As for `Cc1ccc(CNC(=O)NCC2Cn3cccc3C(=O)N2C)cc1` (centres undefined), the RP-LC retention time stood at 680 s.

`COc1cccc(S(=O)(=O)N2CCC(CN3CCCC(C)C3)CC2)c1` (centres undefined) came in with an RP-LC retention time of 662 s.

`O=C(NCc1ccco1)c1ccc2c(c1)N(Cc1ccc(F)cc1)C(=O)CO2` displayed an RP-LC retention time of 830 s.

The molecule `CCOC(=O)Cc1ccc(NC(=O)NC2CCN(c3ccc(F)c(C)c3)C2=O)cc1` (centres undefined) displayed an RP-LC retention time of 853 s.

In turn, `Cc1cccc(NC(=O)Cn2cc(S(=O)(=O)c3ccc(F)cc3)c3ccccc32)n1` gave an RP-LC retention time of 832 s.

With `CCC(CC)NC(=O)C1Cn2cccc2C(=O)N1` (centres undefined), the RP-LC retention time was 629 s.

Turning to `O=C(Cc1c[nH]c2ccccc12)N1CCC(Oc2ccc(-c3noc(C4CC4)n3)cc2)C1` (centres undefined), the RP-LC retention time turned out to be 964 s.

Consider `CC1=C(c2ccccc2)S(=O)(=O)N=C1N1CCCN(C(=O)Cc2ccsc2)CC1`, for which the RP-LC retention time was found to be 721 s.

Take `COCCN1CCn2cc(S(=O)(=O)Nc3ccc(C#N)cc3)cc2C1=O`: the RP-LC retention time was 671 s.

In turn, `CCOc1cccc(-c2noc(Cn3nc(-c4ccc(C)cc4)ccc3=O)n2)c1` registered an RP-LC retention time of 1170 s.

Molecule `CC1CCC(NC(=O)C2CCCN(S(=O)(=O)c3c[nH]c(C(=O)N4CCCC4)c3)C2)CC1` (centres undefined) registered an RP-LC retention time of 784 s.

As to `CCOc1ccc(NC(=O)Cn2cnc3nc(N4CCC(C(=O)NC5CC5)CC4)sc3c2=O)cc1`, the RP-LC retention time turned out to be 675 s.

In turn, `CCOC(=O)c1scc(-c2ccc(C)cc2)c1S(=O)(=O)N1CCN(c2ccccn2)CC1` showed an RP-LC retention time of 866 s.

The molecule `O=S(=O)(c1cccn2c(SCc3ccccc3)nnc12)N1CCCC1` registered an RP-LC retention time of 808 s.

`Cc1ccc(-c2cn3ccccc3n2)cc1NS(=O)(=O)c1ccc(Br)cc1` displayed an RP-LC retention time of 710 s.

Regarding `O=C(CCn1cnc2cc(-c3noc(-c4ccc(F)cc4)n3)ccc21)N1CCOCC1`, the RP-LC retention time was found to be 706 s.

The molecule `CC(=O)Oc1cc(C(C)C)c(OCCN(C)C)cc1C` showed an RP-LC retention time of 708 s.

On to `CCOc1ccc(Nc2c(C(=O)N3CCC(C)CC3)cnc3nc(C)ccc23)cc1`, for which the RP-LC retention time was 661 s.

As for `Cc1ccc(CNC(=O)NCc2c(C)nn(-c3ccccc3)c2-n2cccc2)cc1`, the RP-LC retention time was 972 s.

Take `Cc1nnc(C2CC3(CCN(CC(C)C)CC3)CN2CCc2ccccc2)o1` (centres undefined): the RP-LC retention time stood at 612 s.

In the case of `COc1ccc(N2C=C(C(=O)N3CCCC3)S(=O)(=O)c3ccc(F)cc32)cc1Cl`, the RP-LC retention time worked out at 838 s.

For `CC(C)CCNC(=O)C1CCN(Cc2cc3ccccc3n2Cc2cccc(Cl)c2)CC1`, the RP-LC retention time amounted to 845 s.

With `CN(C)c1ccc2c(c1)CN(C(=O)C1CC1)CCO2`, the RP-LC retention time amounted to 574 s.

Take `O=C1OC2CC1N(C(=O)C1CC=CCC1)C2` (centres undefined): the RP-LC retention time worked out at 622 s.

For the molecule `CCOC(=O)c1ccc(NC(=O)Cn2ccc3ccc(-c4nnc(C)o4)cc32)cc1`, the RP-LC retention time was determined as 944 s.

Take `COc1ccc(-c2nc(-c3ccc4c(c3)oc(=O)n4C)no2)c(C)c1`: the RP-LC retention time is 1100 s.

In turn, `CCc1ccc(Oc2cc(N3CCC(C(=O)NCCc4cccnc4)CC3)ncn2)cc1` displayed an RP-LC retention time of 657 s.

`CC1=C(c2ccc(F)cc2)S(=O)(=O)N=C1N1CCCN(C(=O)c2ccccc2)CC1`: the RP-LC retention time stood at 802 s.

In turn, `Cc1[nH]c2ccccc2c1C(=O)C(=O)N(C)Cc1ccccc1` returned an RP-LC retention time of 805 s.

The molecule `Cc1cc2n(n1)CCC(=O)N2CCCC(=O)NCCCN1CCCCCC1` had an RP-LC retention time of 570 s.

Molecule `CCc1noc2nc(C)nc(N3CCCC(C(=O)NCCN4CCCC4)C3)c12` (centres undefined) came in with an RP-LC retention time of 597 s.

Molecule `COc1ccc2c(c1)C1(CCN(S(=O)(=O)c3cc(OC)ccc3OC)C1)C(=O)N2C` (centres undefined) returned an RP-LC retention time of 879 s.

With `Cc1ccn2cc(-c3ccc(NC(=O)c4ccc([N+](=O)[O-])cc4)cc3)nc2n1`, the RP-LC retention time amounted to 655 s.

On to `CC(=O)N1CCc2ccc(NC(=O)Cc3ccc(-c4ccccc4)cc3)cc2C1`, for which the RP-LC retention time was determined as 800 s.

In turn, `CCCCn1c(=O)c2ccccc2n(Cc2nc(-c3ccc(Br)cc3)no2)c1=O` returned an RP-LC retention time of 1300 s.

Molecule `O=C(NC1CCCC1)N1CCN(c2nc3ccccc3n(Cc3ccccc3)c2=O)CC1` yielded an RP-LC retention time of 997 s.

As for `CCN(Cc1ccccc1)C(=O)Cn1nc2c(N3CCSCC3)nccn2c1=O`, the RP-LC retention time stood at 829 s.

`CC(C)Cc1cc(-c2nn3c(Cc4ccc(Cl)cc4)nnc3s2)n[nH]1` showed an RP-LC retention time of 1010 s.

`COC1CCOC2(CCN(C(=O)c3ccsc3)CC2)C1` (centres undefined) registered an RP-LC retention time of 676 s.

The molecule `O=C(NCCc1csc(-c2ccccc2)n1)C1CCN(S(=O)(=O)c2cccs2)CC1` came in with an RP-LC retention time of 776 s.

On to `Cc1oc2c(c1C(=O)Nc1ccc(Br)cc1)C1=NCCN1C=N2`, for which the RP-LC retention time worked out at 644 s.

Turning to `COc1ccccc1NC(=O)N1CCCC1c1c(C)noc1C` (centres undefined), the RP-LC retention time stood at 797 s.

Molecule `COc1ccc(-n2ccc(=O)c(-c3nc(-c4ccc(F)cc4)no3)n2)cc1` came in with an RP-LC retention time of 851 s.

In turn, `CC1CCCCN1CCNC(=O)CCCn1c(=O)c2cccn2c2ccc(F)cc21` (centres undefined) came in with an RP-LC retention time of 641 s.

In the case of `CNC(=O)[C@@H]1CN(C(=O)c2cnc(C)cn2)C[C@H]1c1n[nH]c(C)n1`, the RP-LC retention time turned out to be 549 s.

In the case of `Cc1cccc(C2(O)C(=O)N(CC(=O)N(C)c3ccccc3)c3ccccc32)c1` (centres undefined), the RP-LC retention time stood at 614 s.

The molecule `Cn1cnc(S(=O)(=O)N2[C@H]3CC[C@@H]2c2cnc(-c4ccccc4)nc2C3)c1` showed an RP-LC retention time of 763 s.

In turn, `Cc1noc(C)c1CNC(=O)c1ccc(C#N)cc1` showed an RP-LC retention time of 675 s.

`COC(=O)C1=CN(c2cccc(C)c2C)c2ccccc2S1(=O)=O` returned an RP-LC retention time of 916 s.

As for `O=C(NCCn1ccc2ccccc21)C(=O)c1cn(CC(=O)N2CCOCC2)c2ccccc12`, the RP-LC retention time is 871 s.

`CCCCOc1ccc(C(=O)Oc2coc(CSc3nncn3C)cc2=O)cc1` showed an RP-LC retention time of 739 s.

Regarding `O=C(c1ccc2ccccc2n1)N1CCN(c2cc(-c3cccs3)[nH]n2)CC1`, the RP-LC retention time amounted to 752 s.

Turning to `O=c1n(Cc2ccccc2Cl)nc2ccc(S(=O)(=O)N3CCCC3)cn12`, the RP-LC retention time is 866 s.

Molecule `C=C1C(=O)OCC2C(C(=O)O)=CC3C(C)C(C)=CC123` (centres undefined) came in with an RP-LC retention time of 730 s.
